Assay results as given in PubChem BioAssay AID330 (DTP/NCI, 2004).
Where “and” joins values, the source holds several entries; their conditions need not be identical. Equal entries are not always repeated. Toxic doses and inconclusive results are not listed.

Test system: P388 leukemia ip, CD2F1 mice, survival T/C
Experiment: NCI In Vivo Anticancer Drug Screen. Data for tumor model P388 Leukemia (intraperitoneal) in CD2F1 (CDF1) mice
Conditions: endpoint: median survival time, higher = longer survival
In short: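 Mice carrying the transplanted tumor received test compound or vehicle. Survival was recorded in each group, and the value is the treated-group measurement divided by that of the vehicle-treated control group.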

[1] = dose: 100.0 mg/kg/injection, schedule: Q04DX003 (ip), vehicle: saline
[2] = dose: 50.0 mg/kg/injection, schedule: Q01DX005 (ip), vehicle: Klucel (hydroxypropylcellulose) (HPC)
[3] = dose: 100.0 mg/kg/injection, schedule: Q01DX005 (ip), vehicle: Klucel (hydroxypropylcellulose) (HPC)
[4] = dose: 200.0 mg/kg/injection, schedule: Q01DX005 (ip), vehicle: Klucel (hydroxypropylcellulose) (HPC)
[5] = dose: 12.5 mg/kg/injection, schedule: Q01DX009 (ip), vehicle: saline with Tween-80
[6] = dose: 50.0 mg/kg/injection, schedule: Q01DX009 (ip), vehicle: saline with Tween-80
[7] = dose: 100.0 mg/kg/injection, schedule: Q01DX009 (ip), vehicle: saline with Tween-80
[8] = dose: 200.0 mg/kg/injection, schedule: Q01DX009 (ip), vehicle: saline with Tween-80

## C[C@@]1(O)CC[C@@]23OC(=O)CC2C[C@@H]1O3 (some centres undefined)
dose: 100.0 mg/kg/injection, schedule: Q01DX001 (ip), vehicle: saline
  T/C: 102 % of control
dose: 200.0 mg/kg/injection, schedule: Q01DX001 (ip), vehicle: saline
  T/C: 98 % of control
dose: 400.0 mg/kg/injection, schedule: Q01DX001 (ip), vehicle: saline
  T/C: 104 % of control

## O=C(O)C1CCCC2C(O)CCC(=O)C12 (centres undefined)
[1]
  T/C: 105 % of control
dose: 200.0 mg/kg/injection, schedule: Q04DX003 (ip), vehicle: saline
  T/C: 110 % of control
dose: 400.0 mg/kg/injection, schedule: Q04DX003 (ip), vehicle: saline
  T/C: 105 % of control

## CC1(O)CC[N+](C)(C)CC1c1ccccc1 (centres undefined)
dose: 50.0 mg/kg/injection, schedule: Q04DX003 (ip), vehicle: saline
  T/C: 118 % of control
[1]
  T/C: 113 % of control

## Cc1cc(O)c2c3c(c(=O)oc2c1)CP(=O)(c1ccccc1)CC3 (centres undefined)
dose: 100.0 mg/kg/injection, schedule: Q01DX001 (ip), vehicle: saline with Tween-80
  T/C: 94 % of control
dose: 200.0 mg/kg/injection, schedule: Q01DX001 (ip), vehicle: saline with Tween-80
  T/C: 91 % of control
dose: 400.0 mg/kg/injection, schedule: Q01DX001 (ip), vehicle: saline with Tween-80
  T/C: 91 % of control

## CCC1(C)c2[nH]c3ccccc3c2C(=O)NN1C(C)=O (centres undefined)
[2]
  T/C: 104 % of control
[3]
  T/C: 107 % of control
[4]
  T/C: 112 % of control

## O=c1cc(O)n(-c2ccccc2)c(=O)n1-c1ccccc1
dose: 75.0 mg/kg/injection, schedule: Q01DX009 (ip), vehicle: saline with Tween-80
  T/C: 102 % of control
dose: 150.0 mg/kg/injection, schedule: Q01DX009 (ip), vehicle: saline with Tween-80
  T/C: 100 % of control
dose: 300.0 mg/kg/injection, schedule: Q01DX009 (ip), vehicle: saline with Tween-80
  T/C: 100 % of control

## CN(C)P(c1ccccc1)N(C)C
dose: 50.0 mg/kg/injection, schedule: Q01DX009 (ip), vehicle: Klucel (hydroxypropylcellulose) (HPC)
  T/C: 106 % of control
dose: 100.0 mg/kg/injection, schedule: Q01DX009 (ip), vehicle: Klucel (hydroxypropylcellulose) (HPC)
  T/C: 102 % of control
dose: 200.0 mg/kg/injection, schedule: Q01DX009 (ip), vehicle: Klucel (hydroxypropylcellulose) (HPC)
  T/C: 107 % of control

## CCOC(=O)C(=O)C(C#N)c1ccccc1CC#N (centres undefined)
dose: 50.0 mg/kg/injection, schedule: Q01DX005 (ip), vehicle: saline with Tween-80
  T/C: 109 % of control
dose: 100.0 mg/kg/injection, schedule: Q01DX005 (ip), vehicle: saline with Tween-80
  T/C: 97 % of control

## COC(=O)C1C(=O)COC1C (centres undefined)
dose: 50.0 mg/kg/injection, schedule: Q01DX005 (ip), vehicle: saline
  T/C: 102 % of control
dose: 200.0 mg/kg/injection, schedule: Q01DX005 (ip), vehicle: saline
  T/C: 102 % of control

## CCSSc1ccccc1C(=O)O
[2]
  T/C: 102 % of control
[3]
  T/C: 109 % of control
[4]
  T/C: 112 % of control

## Cc1noc(N)c1-n1c(C)ccc1C
dose: 100.0 mg/kg/injection, schedule: Q04DX003 (ip), vehicle: saline with Tween-80
  T/C: 95 % of control
dose: 200.0 mg/kg/injection, schedule: Q04DX003 (ip), vehicle: saline with Tween-80
  T/C: 100 % of control
dose: 400.0 mg/kg/injection, schedule: Q04DX003 (ip), vehicle: saline with Tween-80
  T/C: 100 % of control

## CCOC(=O)C(C)(C)Br
dose: 100.0 mg/kg/injection, schedule: Q01DX009 (ip), vehicle: saline sonified
  T/C: 105 % of control
dose: 200.0 mg/kg/injection, schedule: Q01DX009 (ip), vehicle: saline sonified
  T/C: 105 % of control
dose: 400.0 mg/kg/injection, schedule: Q01DX009 (ip), vehicle: saline sonified
  T/C: 115 % of control

## O=C(C=C(C(F)(F)F)C(F)(F)F)c1ccc(F)cc1
dose: 6.25 mg/kg/injection, schedule: Q04DX003 (ip), vehicle: other
  T/C: 109 % of control
dose: 12.5 mg/kg/injection, schedule: Q04DX003 (ip), vehicle: other
  T/C: 104 % of control
dose: 16.5 mg/kg/injection, schedule: Q01DX009 (ip), vehicle: saline + alcohol
  T/C: 110 % of control
dose: 25.0 mg/kg/injection, schedule: Q01DX009 (ip), vehicle: saline + alcohol
  T/C: 106 % of control
dose: 25.0 mg/kg/injection, schedule: Q04DX003 (ip), vehicle: other
  T/C: 118 % of control
dose: 37.5 mg/kg/injection, schedule: Q01DX009 (ip), vehicle: saline + alcohol
  T/C: 109 % of control

## O=NN(CCCl)C(=O)Nc1c[nH]c(=O)[nH]c1=O
dose: 0.01 mg/kg/injection, schedule: Q04DX003 (ip), vehicle: saline with Tween-80
  T/C: 95 % of control
dose: 0.02 mg/kg/injection, schedule: Q04DX003 (ip), vehicle: saline with Tween-80
  T/C: 100 % of control
dose: 0.04 mg/kg/injection, schedule: Q04DX003 (ip), vehicle: saline with Tween-80
  T/C: 100 % of control
dose: 0.5 mg/kg/injection, schedule: Q04DX003 (ip), vehicle: saline
  T/C: 150 % of control
dose: 1.0 mg/kg/injection, schedule: Q04DX003 (ip), vehicle: saline
  T/C: 159 % of control
dose: 2.0 mg/kg/injection, schedule: Q04DX003 (ip), vehicle: saline
  T/C: 172 % of control
dose: 3.0 mg/kg/injection, schedule: Q04DX003 (ip), vehicle: saline with Tween-80
  T/C: 195 % of control
dose: 3.13 mg/kg/injection, schedule: Q01DX009 (ip), vehicle: saline with Tween-80
  T/C: 227 % of control
dose: 6.0 mg/kg/injection, schedule: Q04DX003 (ip), vehicle: saline with Tween-80
  T/C: 213 % of control
dose: 6.25 mg/kg/injection, schedule: Q01DX009 (ip), vehicle: saline with Tween-80
  T/C: 227 % of control
dose: 8.0 mg/kg/injection, schedule: Q04DX003 (ip), vehicle: saline with Tween-80
  T/C: 191 % of control
dose: 12.0 mg/kg/injection, schedule: Q04DX003 (ip), vehicle: saline with Tween-80
  T/C: 166 % of control
[5]
  T/C: 109 % of control
dose: 12.5 mg/kg/injection, schedule: Q04DX003 (ip), vehicle: saline with Tween-80
  T/C: 219 % of control
dose: 18.0 mg/kg/injection, schedule: Q04DX003 (ip), vehicle: saline with Tween-80
  T/C: 191 % of control
dose: 30.0 mg/kg/injection, schedule: Q01DX009 (ip), vehicle: saline with Tween-80
  T/C: 100 % of control

## CCCCOc1cccc2c(NCCNc3c4ccccc4nc4c(OCCCC)cccc34)c3ccccc3nc12
dose: 0.62 mg/kg/injection, schedule: Q01DX009 (ip), vehicle: other
  T/C: 105 % of control
dose: 1.25 mg/kg/injection, schedule: Q01DX009 (ip), vehicle: other
  T/C: 109 % of control
dose: 2.5 mg/kg/injection, schedule: Q01DX009 (ip), vehicle: other
  T/C: 101 % of control
dose: 5.0 mg/kg/injection, schedule: Q01DX009 (ip), vehicle: other
  T/C: 100 % of control
dose: 10.0 mg/kg/injection, schedule: Q01DX009 (ip), vehicle: other
  T/C: 100 % of control

## CC1C(=O)OC2C1CCC1(C)CC(Br)C(=O)C(C)C21 (centres undefined)
dose: 100.0 mg/kg/injection, schedule: Q04DX002 (ip), vehicle: saline with Tween-80
  T/C: 102 % of control
dose: 200.0 mg/kg/injection, schedule: Q04DX002 (ip), vehicle: saline with Tween-80
  T/C: 102 % of control and 100 % of control
dose: 400.0 mg/kg/injection, schedule: Q04DX002 (ip), vehicle: saline with Tween-80
  T/C: 104 % of control and 101 % of control

## Cc1nc2c([N+](=O)[O-])cc(Cl)cc2[nH]1
dose: 30.0 mg/kg/injection, schedule: Q01DX005 (ip), vehicle: Klucel (hydroxypropylcellulose) (HPC)
  T/C: 107 % of control
dose: 60.0 mg/kg/injection, schedule: Q01DX005 (ip), vehicle: Klucel (hydroxypropylcellulose) (HPC)
  T/C: 107 % of control
dose: 120.0 mg/kg/injection, schedule: Q01DX005 (ip), vehicle: Klucel (hydroxypropylcellulose) (HPC)
  T/C: 103 % of control

## COC(=O)C(N)Cc1cn(Cc2ccccc2)cn1 (centres undefined)
[6]
  T/C: 95 % of control
[7]
  T/C: 96 % of control
[8]
  T/C: 96 % of control

## CCCCCCCCCCCCCCCC(=O)N(CCCCN(CCCN(C)C)C(=O)CCCCCCCCCCCCCCC)CCCN(C)C
[5]
  T/C: 90 % of control
dose: 25.0 mg/kg/injection, schedule: Q01DX009 (ip), vehicle: saline with Tween-80
  T/C: 90 % of control

## O=C1C2CCC(CC2)C1C(c1ccccc1)c1ccccc1 (centres undefined)
[6]
  T/C: 93 % of control
[7]
  T/C: 91 % of control
[8]
  T/C: 90 % of control
